Assay results from patent US8802711B2, “TRPV1 antagonists” (AbbVie Inc., priority 2011, dated 2014).
pIC50: −log10 of the molar value. Read-outs that look alike come from different tables or passages of the source.

How the values were obtained:
[1] = tested on: Sprague-Dawley rats; assay: Rat acute capsaicin-induced flinching behavior; format: in vivo; details: 100 μmol/kg p.o., percent reduction in number of flinching behaviors
Excerpt: (§1) Adult male Sprague-Dawley rats (250-300 g body weight, Charles River Laboratories, Portage, Mich.) were used. Animal handling and experimental protocols were approved by the Institutional Animal Care and Use Committee (IACUC) at Abbott Laboratories. For all surgical procedures, animals were maintained under isoflurane anesthesia (4-5% to induce, 1-3% to maintain), and the incision sites were sterilized using a 10% povidone-iodine solution prior to and after surgeries.
Rats were placed in individual observation cages. […] One hour after administration of the test compound, 2.5 μg of capsaicin in a 10 μL solution of 10% ethanol/90% hydroxypropyl-β-cyclodextrin was injected subcutaneously into the dorsal aspect of the right hind paw. The observation cage was then suspended above mirrors in order to facilitate observation. […] The number of flinching behaviors of the injured paw was recorded during the five minute observation period (Gilchrist, H. D.; Allard, B. L.; Simone, D. A.; Enhanced withdrawal responses to heat and mechanical stimuli following intraplantar injection of capsaicin in rats. Pain, 1996, 67, 179-188). The percent reduction in the number of flinching behaviors produced with oral administration of representative compounds of the present invention relative to control-treated animals (% effect) is reported in Table 3.

[2] = molecular target: T1, human TRPV1 receptor (hTRPV1) (Homo sapiens (Human), UniProt Q8NER1); assay: Capsaicin activation assay (FLIPR intracellular Ca2+); format: cell-based; details: inhibition of capsaicin-induced intracellular Ca2+ increase, read-out: hTRPV1 cap IC50
T1 sequence (Q8NER1 whole entry): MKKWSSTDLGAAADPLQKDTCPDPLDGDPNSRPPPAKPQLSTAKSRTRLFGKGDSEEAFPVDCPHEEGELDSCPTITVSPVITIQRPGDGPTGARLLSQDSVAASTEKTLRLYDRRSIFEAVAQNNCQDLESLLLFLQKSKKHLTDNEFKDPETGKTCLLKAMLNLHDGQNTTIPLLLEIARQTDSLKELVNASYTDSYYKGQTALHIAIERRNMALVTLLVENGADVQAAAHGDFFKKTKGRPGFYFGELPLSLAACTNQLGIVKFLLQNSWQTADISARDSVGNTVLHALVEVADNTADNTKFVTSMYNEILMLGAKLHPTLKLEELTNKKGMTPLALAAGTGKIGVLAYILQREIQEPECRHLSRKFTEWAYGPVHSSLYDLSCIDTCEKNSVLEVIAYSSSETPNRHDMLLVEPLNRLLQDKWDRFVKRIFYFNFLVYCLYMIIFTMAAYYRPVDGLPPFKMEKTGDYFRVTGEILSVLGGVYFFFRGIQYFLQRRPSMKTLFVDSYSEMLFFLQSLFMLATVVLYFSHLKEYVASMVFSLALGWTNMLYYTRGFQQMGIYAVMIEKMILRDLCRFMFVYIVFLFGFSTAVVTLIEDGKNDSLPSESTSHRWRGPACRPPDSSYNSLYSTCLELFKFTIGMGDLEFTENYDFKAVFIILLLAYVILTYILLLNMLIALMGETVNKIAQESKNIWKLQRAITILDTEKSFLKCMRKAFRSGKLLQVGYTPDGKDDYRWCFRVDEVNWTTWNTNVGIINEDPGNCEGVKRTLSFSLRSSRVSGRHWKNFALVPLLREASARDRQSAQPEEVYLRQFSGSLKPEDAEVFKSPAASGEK
How it was run: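 Antagonism measured as [Ca2+]i fluorescence on FLIPR Tetra: compounds given 3 min ahead of capsaicin, added as 200 nM (4×), to dye-loaded hTRPV1-HEK293 cells. Response taken as baseline-subtracted peak, normalized to the 50 nM capsaicin control; 12-point one-third-log titrations.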

[3] = tested on: Sprague-Dawley rats; assay: Rat tail immersion assay (noxious thermosensation); format: in vivo; details: rat, 100 μmol/kg oral, one hour post dosing, 55° C. water bath, relative to vehicle
Protocol: as §1
Compounds were tested for their effects on noxious thermosensation using the tail immersion assay. Testing was performed one hour following oral administration of 100 μmol/kg of the compound in 10% ethanol/20% Tween-80/70% PEG-400 (2 mL/kg). Morphine (6 mg/kg) was administered interperitoneally (i.p.) using saline (2 mL/kg) as the vehicle. For testing, a circulating water bath was heated to 55° C. Thirty to sixty minutes post dosing, the rats were handled for a few seconds to calm them down and then cupped with their back against the tester's hand at a slight angle with head facing away from the tester. With rat in one hand and a 0.01 second stopwatch in the other hand, the tail was quickly immersed 6-8 cm in the water bath or to a distance leaving 2-3 cm of tail out of water. The timer was started simultaneously. When the rat flinched or attempted withdrawal, timer was immediately stopped and the rat's tail was quickly removed from water bath. This response latency (in seconds) was recorded. Process was repeated 3 times with 3-4 minutes between readings and the average response latency was calculated.
For a given example, a percent increase in the average response latency (in seconds) for tail withdrawal relative to a vehicle control was determined. % increase=[(tc−tv)/tv]×100%
tc=response latency (in seconds) with oral dosing of compounds
tv=response latency (in seconds) with oral dosing of vehicle
The % increases in tail withdrawal latency relative to vehicle control are divided into the following categories: […]

[4] = molecular target: T1, human TRPV1 receptor (hTRPV1); assay: Acid activation assay (pH 5.0, FLIPR intracellular Ca2+); format: cell-based; details: 37.5 μM antagonist, percentage of the maximal pH 5.0-induced response remaining, read-out: hTRPV1 H+ (max % remain)
How it was run: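 Antagonism of acid-evoked Ca2+ influx measured by FLIPR Calcium-4 fluorescence after a pH 5.0 DPBS/MES stimulus, with compounds preincubated 3 min over 12 half-log concentrations. Cells: stable hTRPV1-expressing 1321N1 line, dye-loaded 90–120 min in the dark at 25 °C.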

pIC50 ([2]; Table 1, HEK293 cells expressing human TRPV1): 7.89 | pIC50 ([2]; Table 2): 7.89 | remaining activity at 37.5 µM ([4]; Table 1): 56% | remaining activity at 37.5 µM ([4]; Table 2): 56%
SMILES: Cn1c(=O)ccc2c(NC(=O)N[C@@H]3CC[C@H](c4ccccc4)C3)cccc21 [Example 51, 1-(1-methyl-2-oxo-1,2-dihydroquinolin-5-yl)-3-((1R,3S)-3-phenylcyclopentyl)urea]
% effect [1]: 30% | % Increase in tail withdrawal latency [3]: −
